Assay results: ChEMBL document CHEMBL3585246, “Design, synthesis and evaluation of novel 2-butyl-4-chloroimidazole derived peptidomimetics as Angiotensin Converting Enzyme (ACE) inhibitors” (Bioorg Med Chem, 2015)

Legend:
[1] = biological target: T1, Angiotensin-converting enzyme (Oryctolagus cuniculus) (UniProt P12822); assay: Inhibition of rabbit lung ACE assessed as hippuryl-histidyl-leucine hydrolysis at 1 uM after 30 mins by colorimetric method
T1 sequence (whole entry): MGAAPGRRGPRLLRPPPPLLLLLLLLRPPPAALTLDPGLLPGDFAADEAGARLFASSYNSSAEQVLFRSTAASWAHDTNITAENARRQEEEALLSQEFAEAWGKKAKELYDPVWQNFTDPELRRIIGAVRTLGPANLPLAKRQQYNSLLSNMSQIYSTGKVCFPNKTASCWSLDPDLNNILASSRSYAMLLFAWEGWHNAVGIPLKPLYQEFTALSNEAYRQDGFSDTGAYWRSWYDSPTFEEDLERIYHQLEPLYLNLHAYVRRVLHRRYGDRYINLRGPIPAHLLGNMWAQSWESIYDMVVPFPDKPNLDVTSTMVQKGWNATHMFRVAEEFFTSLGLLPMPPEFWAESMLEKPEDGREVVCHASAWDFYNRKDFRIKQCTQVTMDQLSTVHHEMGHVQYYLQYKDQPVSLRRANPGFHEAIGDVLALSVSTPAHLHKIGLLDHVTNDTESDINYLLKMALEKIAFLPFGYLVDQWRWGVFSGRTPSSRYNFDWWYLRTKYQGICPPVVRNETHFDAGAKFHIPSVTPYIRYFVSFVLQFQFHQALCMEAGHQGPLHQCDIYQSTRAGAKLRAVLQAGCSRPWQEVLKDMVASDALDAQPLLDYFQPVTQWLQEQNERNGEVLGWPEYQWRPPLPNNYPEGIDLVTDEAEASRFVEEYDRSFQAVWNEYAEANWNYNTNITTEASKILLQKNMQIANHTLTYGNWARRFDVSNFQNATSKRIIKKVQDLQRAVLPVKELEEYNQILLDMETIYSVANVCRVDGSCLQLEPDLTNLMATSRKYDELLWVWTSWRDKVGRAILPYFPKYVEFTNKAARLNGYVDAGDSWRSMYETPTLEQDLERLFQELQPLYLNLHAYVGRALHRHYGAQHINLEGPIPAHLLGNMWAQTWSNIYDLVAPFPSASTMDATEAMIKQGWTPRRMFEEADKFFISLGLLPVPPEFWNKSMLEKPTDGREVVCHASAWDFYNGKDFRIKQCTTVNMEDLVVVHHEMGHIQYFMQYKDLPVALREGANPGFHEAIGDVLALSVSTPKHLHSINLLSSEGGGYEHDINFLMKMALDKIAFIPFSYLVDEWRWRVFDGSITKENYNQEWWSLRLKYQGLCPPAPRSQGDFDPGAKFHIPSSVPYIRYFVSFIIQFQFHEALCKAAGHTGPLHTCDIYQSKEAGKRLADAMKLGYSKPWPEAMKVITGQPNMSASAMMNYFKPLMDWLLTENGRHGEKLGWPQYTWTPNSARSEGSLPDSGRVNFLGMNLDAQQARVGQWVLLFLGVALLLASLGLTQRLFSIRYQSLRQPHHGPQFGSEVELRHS

[2] = biological target: T2, Angiotensin-converting enzyme (Oryctolagus cuniculus, UniProt P12822); assay: Inhibition of rabbit lung ACE assessed as hippuryl-histidyl-leucine hydrolysis after 30 mins by colorimetric method
T2 sequence (P12822 whole entry): T1 sequence (whole entry)

ACE (rabbit lung) [3] = assay: Ratio of IC50 for human A549 cells to IC50 for rabbit lung ACE; type: cell-based; conditions: read-out: Ratio IC50
ACE (rabbit lung) [4] = assay: Ratio of IC50 for HEK cells to IC50 for rabbit lung ACE; type: cell-based, HEK293; conditions: read-out: Ratio IC50

SMILES	inhibition [1] [%]	IC50 [2] [nM]	selectivity ratio (ACE (rabbit lung) [3])	selectivity ratio (ACE (rabbit lung) [4])
CCCCc1nc(Cl)c(C(=O)N[C@@H](CCSC)C(=O)OC)n1C	55			
CCCCc1nc(Cl)c(C(=O)N[C@@H](CO)C(=O)OC)n1C	55			
CCCCc1nc(Cl)c(C(=O)N[C@@H](CC(C)C)C(=O)OC)n1C	55			
CCCCc1nc(Cl)c(C(=O)N[C@@H](C)C(=O)O)n1C	55			
CCCCc1nc(Cl)c(C(=O)N[C@@H](CCSC)C(=O)O)n1C	> 80	657	1000	1000
CCCCc1nc(Cl)c(C(=O)N[C@H](C(=O)OC)C(C)C)n1C	55			
CCCCc1nc(Cl)c(C(=O)N[C@@H](Cc2ccccc2)C(=O)O)n1C	55	100	1000	1000
CCCCc1nc(Cl)c(C(=O)N[C@@H](CO)C(=O)O)n1C	55			
CCCCc1nc(Cl)c(C(=O)N[C@H](C(=O)O)C(C)C)n1C	55			
CCCCc1nc(Cl)c(C(=O)N[C@H](C(=O)OC)[C@H](C)O)n1C	55			
CCCCc1nc(Cl)c(C(=O)N[C@@H](C)C(=O)OC)n1C	55			
CCCCc1nc(Cl)c(C(=O)N[C@H](C(=O)OC)[C@H](C)CC)n1C	55			
CCCCc1nc(Cl)c(C(=O)NCC(=O)O)n1C	55			
CCCCc1nc(Cl)c(C(=O)N[C@@H](Cc2c[nH]c3ccccc23)C(=O)O)n1C	> 80			
CCOC(=O)[C@H](CCc1ccccc1)N[C@H]1CCc2ccccc2N(CC(=O)O)C1=O [BENAZEPRIL]		100		
CCCCc1nc(Cl)c(C(=O)N[C@@H](Cc2ccc(O)cc2)C(=O)OC)n1C	55			
CCCCc1nc(Cl)c(C(=O)N[C@@H](Cc2c[nH]c3ccccc23)C(=O)OC)n1C	> 80	531	1000	1000
CCCCc1nc(Cl)c(C(=O)N[C@H](C(=O)O)[C@H](C)O)n1C	55			
NCCCC[C@H](N[C@@H](CCc1ccccc1)C(=O)O)C(=O)N1CCC[C@H]1C(=O)O [LISINOPRIL ANHYDROUS]		318		
CCCCc1nc(Cl)c(C(=O)N[C@@H](Cc2ccc(O)cc2)C(=O)O)n1C	55			
CCCCc1nc(Cl)c(C(=O)NCC(=O)OC)n1C	55			
CCCCc1nc(Cl)c(C(=O)N[C@H](C(=O)O)[C@H](C)CC)n1C	> 80	1120	1000	1000
CCCCc1nc(Cl)c(C(=O)N[C@@H](Cc2ccccc2)C(=O)OC)n1C	> 80	647	1000	1000
CCCCc1nc(Cl)c(C(=O)N[C@@H](CC(C)C)C(=O)O)n1C	55			
